Reference: patent US12122770B1, “2-(benzo[d]oxazol-2-yl)-n'-(nicotinoyloxy)acetimidamide as an antimicrobial compound” (KING FAISAL UNIVERSITY, priority 2023, dated 2024)

Key:
Bacillus Cereus = experiment: Agar plate disc-diffusion, antibacterial activity (inhibition zone); format: cell-based; details: Gram positive, DMSO zone subtracted; for inhibition zone, Bacillus Cereus, A: A = concentration of comp. = 10,000 μL; for inhibition zone, Bacillus Cereus, B: B = concentration of comp. = 30,000 μL; for inhibition zone, Bacillus Cereus, C: C = concentration of comp. = 50,000 μL
Experimental: (§1) The agar plate disc-diffusion method was applied. […] The discs were then placed onto the surface of agar plates (nutrient agar for bacteria and Sabouraud's dextrose agar for fungi) seeded with the test organism. Each plate contained 15 mL of the agar medium, previously seeded with 0.2 mL of the broth culture of each organism pregrown for 18 hours. The plates were incubated at 37° C. for 48 hours, and 72 hours for fungi. The inhibition zones was measured in mm. Discs impregnated with DMSO were used as a control, and its inhibition zone was subtracted from the tested compound actual inhibition zone.

Staphylococcus aureus = experiment: as above; format: cell-based; details: Gram positive, DMSO zone subtracted; for inhibition zone, Staphylococcus aureus, A: A = concentration of comp. = 10,000 μL; for inhibition zone, Staphylococcus aureus, B: B = concentration of comp. = 30,000 μL; for inhibition zone, Staphylococcus aureus, C: C = concentration of comp. = 50,000 μL
Experimental: as §1

Pseudomonas aeruginosa = experiment: as above; format: cell-based; details: Gram negative, DMSO zone subtracted; for inhibition zone, Pseudomonas aeruginosa, A: A = concentration of comp. = 10,000 μL; for inhibition zone, Pseudomonas aeruginosa, B: B = concentration of comp. = 30,000 μL; for inhibition zone, Pseudomonas aeruginosa, C: C = concentration of comp. = 50,000 μL
Experimental: as §1

Escherichia coli = experiment: as above; format: cell-based; details: Gram negative, DMSO zone subtracted; for inhibition zone, Escherichia coli, A: A = concentration of comp. = 10,000 μL; for inhibition zone, Escherichia coli, B: B = concentration of comp. = 30,000 μL; for inhibition zone, Escherichia coli, C: C = concentration of comp. = 50,000 μL
Experimental: as §1

Aspergillus flavus = experiment: Agar plate disc-diffusion, antifungal activity (inhibition zone); format: cell-based; details: fungal, 72 hours, DMSO zone subtracted; for inhibition zone, Aspergillus flavus, A: A = concentration of comp. = 10,000 μL; for inhibition zone, Aspergillus flavus, B: B = concentration of comp. = 30,000 μL; for inhibition zone, Aspergillus flavus, C: C = concentration of comp. = 50,000 μL
Experimental: as §1

[1] = test system: Chrysosporium keratinophilum; experiment: as above; format: cell-based; details: fungal, 72 hours, DMSO zone subtracted; for inhibition zone, Chrysosporium keratinophilum, A: A = concentration of comp. = 10,000 μL; for inhibition zone, Chrysosporium keratinophilum, B: B = concentration of comp. = 30,000 μL; for inhibition zone, Chrysosporium keratinophilum, C: C = concentration of comp. = 50,000 μL
Experimental: as §1

| melting point | Compound | inhibition zone, Bacillus Cereus, A (Bacillus Cereus) | inhibition zone, Bacillus Cereus, B (Bacillus Cereus) | inhibition zone, Bacillus Cereus, C (Bacillus Cereus) | inhibition zone, Staphylococcus aureus, A (Staphylococcus aureus) | inhibition zone, Staphylococcus aureus, B (Staphylococcus aureus) | inhibition zone, Staphylococcus aureus, C (Staphylococcus aureus) | inhibition zone, Pseudomonas aeruginosa, A (Pseudomonas aeruginosa) | inhibition zone, Pseudomonas aeruginosa, B (Pseudomonas aeruginosa) | inhibition zone, Pseudomonas aeruginosa, C (Pseudomonas aeruginosa) | inhibition zone, Escherichia coli, A (Escherichia coli) | inhibition zone, Escherichia coli, B (Escherichia coli) | inhibition zone, Escherichia coli, C (Escherichia coli) | inhibition zone, Aspergillus flavus, A (Aspergillus flavus) | inhibition zone, Aspergillus flavus, B (Aspergillus flavus) | inhibition zone, Aspergillus flavus, C (Aspergillus flavus) | inhibition zone, Chrysosporium keratinophilum, A [1] | inhibition zone, Chrysosporium keratinophilum, B [1] | inhibition zone, Chrysosporium keratinophilum, C [1] |
| --- | --- | --- | --- | --- | --- | --- | --- | --- | --- | --- | --- | --- | --- | --- | --- | --- | --- | --- | --- |
|  | O=C(O)c1cn(C2CC2)c2cc(N3CCNCC3)c(F)cc2c1=O [Cip., ciprofloxacin, reference compound] | 29 mm | 31 mm | 42 mm | 43 mm | 44 mm | 53 mm | 29 mm | 30 mm | 53 mm | 30 mm | 39 mm | 60 mm | 28 mm | 31 mm | 43 mm | 30 mm | 33 mm | 55 mm |
| 155 to 156 °C | N/C(Cc1nc2ccccc2o1)=N\OC(=O)c1cccnc1 [compound 3, 2-(benzo[d]oxazol-2-yl)-N′-(nicotinoyloxy)acetimidamide] | 26 mm | 29 mm | 37 mm | 28 mm | 31 mm | 40 mm | 23 mm | 25 mm | 40 mm | 26 mm | 33 mm | 47 mm | 21 mm | 24 mm | 32 mm | 26 mm | 29 mm | 48 mm |
